Laboratory results: patent US12637428B2, “Isoquinoline derivatives as SIK2 inhibitors” (Cancer Research Technology Limited, priority 2019, dated 2026)

Tests used:
Type in all cases: biochemical
Abl = molecular target: T1, Abl (Homo sapiens, UniProt P00519); assay: Abl kinase assay, IMAP fluorescence polarization; conditions: 50 or 100 μM ATP, average
T1 construct: purchased Life Technologies
Protocol: (§1) SIK2, SIK1, SIK3, Abl, Src and EPHA2 Kinase Assays
(§2) SIK2, SIK1, SIK3, Abl, Src and EPHA2 assays were performed using an IMAP fluorescence polarization assay format (Molecular Devices Inc.). 0.6-13 nM of each kinase (Life Technologies) was incubated for 60 min at room temperature with 100 nM of either FAM-Abltide, FAM-Srctide or FAM-HDAC protein derived peptide (synthesized by Alta Biosciences, Birmingham UK). Assays were carried out in the presence of 50 or 100 μM ATP in either 20 mM Tris buffer (pH 7.2) containing 4 mM MgCl2, 0.2% BSA and 2 mM DTT (SIK2, SIK1, SIK3, Abl, Src); or 20 mM Tris buffer (pH 8.5) containing 20 mM MgCl2, 0.5% BSA, 0.2% Triton and 5 mM DTT (EPHA2). Typically, dose response analyses were performed over concentration ranges from 0.00005-1 μM. Reactions were stopped by adding 2 assay volumes of 0.25% (v/v) IMAP binding reagent in either an 85:15 ratio (SIK2, SIK1, SIK3, Abl, EPHA2) or 30:70 ratio (Src) of IMAP binding buffers A and B (Molecular Devices). After incubation to allow the detection reagents to bind to the phosphorylated peptide, fluorescence polarization was measured on a Tecan Infinite plate reader at excitation (470 nm) and emission (530 nm) wavelengths. Inhibition was calculated using no inhibitor and no enzyme controls as 0 and 100% inhibition, respectively.
(§3) Table 3 provides details of the inhibitory constant (nM) of compounds of the invention at SIK1, SIK2 and SIK3 and other kinases.

Src = molecular target: T2, Src (Homo sapiens, UniProt P12931); assay: Src kinase assay, IMAP fluorescence polarization; conditions: 50 or 100 μM ATP, average
T2 construct: purchased Life Technologies
Protocol: as §1, §2, §3

SIK2 = molecular target: T3, SIK2 (Homo sapiens, UniProt Q9H0K1); assay: SIK2 kinase assay, IMAP fluorescence polarization; conditions: 50 or 100 μM ATP, average
T3 construct: purchased Life Technologies
Protocol: as §1, §2, §3

SIK1 = molecular target: T4, SIK1 (Homo sapiens, UniProt P57059); assay: SIK1 kinase assay, IMAP fluorescence polarization; conditions: 50 or 100 μM ATP, average
T4 construct: purchased Life Technologies
Protocol: as §1, §2, §3

EPHA2 = molecular target: T5, EPHA2 (Homo sapiens, UniProt P29317); assay: EPHA2 kinase assay, IMAP fluorescence polarization; conditions: 50 or 100 μM ATP, Tris pH 8.5, average
T5 construct: purchased Life Technologies
Protocol: as §1, §2, §3

SIK3 = molecular target: T6, SIK3 (Homo sapiens, UniProt Q9Y2K2); assay: SIK3 kinase assay, IMAP fluorescence polarization; conditions: 50 or 100 μM ATP, average
T6 construct: purchased Life Technologies
Protocol: as §1, §2, §3

T3 sequence (Q9H0K1 whole entry): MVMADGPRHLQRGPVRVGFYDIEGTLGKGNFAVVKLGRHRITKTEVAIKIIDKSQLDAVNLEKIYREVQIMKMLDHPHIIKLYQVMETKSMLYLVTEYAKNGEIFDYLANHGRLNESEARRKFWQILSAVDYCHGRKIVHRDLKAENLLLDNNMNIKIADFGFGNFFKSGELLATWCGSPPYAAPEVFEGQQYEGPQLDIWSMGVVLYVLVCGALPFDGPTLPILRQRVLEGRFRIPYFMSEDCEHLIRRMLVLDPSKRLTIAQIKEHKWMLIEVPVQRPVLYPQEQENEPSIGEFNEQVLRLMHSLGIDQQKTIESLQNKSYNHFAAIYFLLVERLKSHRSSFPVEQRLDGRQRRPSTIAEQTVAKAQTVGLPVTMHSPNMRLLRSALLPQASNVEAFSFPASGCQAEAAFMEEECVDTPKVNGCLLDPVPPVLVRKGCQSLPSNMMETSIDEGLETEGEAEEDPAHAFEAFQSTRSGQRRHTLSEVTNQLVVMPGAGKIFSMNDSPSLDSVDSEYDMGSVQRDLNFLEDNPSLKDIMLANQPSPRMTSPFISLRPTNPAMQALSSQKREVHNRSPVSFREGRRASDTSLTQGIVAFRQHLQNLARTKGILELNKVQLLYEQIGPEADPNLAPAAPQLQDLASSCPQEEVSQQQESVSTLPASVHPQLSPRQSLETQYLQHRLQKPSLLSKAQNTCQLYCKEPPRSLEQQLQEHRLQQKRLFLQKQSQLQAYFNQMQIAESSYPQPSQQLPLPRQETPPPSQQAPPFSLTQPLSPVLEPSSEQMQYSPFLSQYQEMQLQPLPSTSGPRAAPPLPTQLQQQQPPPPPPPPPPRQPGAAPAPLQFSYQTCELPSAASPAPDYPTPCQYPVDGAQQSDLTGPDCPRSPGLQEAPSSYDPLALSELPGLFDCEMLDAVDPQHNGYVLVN
T1 sequence (P00519 whole entry): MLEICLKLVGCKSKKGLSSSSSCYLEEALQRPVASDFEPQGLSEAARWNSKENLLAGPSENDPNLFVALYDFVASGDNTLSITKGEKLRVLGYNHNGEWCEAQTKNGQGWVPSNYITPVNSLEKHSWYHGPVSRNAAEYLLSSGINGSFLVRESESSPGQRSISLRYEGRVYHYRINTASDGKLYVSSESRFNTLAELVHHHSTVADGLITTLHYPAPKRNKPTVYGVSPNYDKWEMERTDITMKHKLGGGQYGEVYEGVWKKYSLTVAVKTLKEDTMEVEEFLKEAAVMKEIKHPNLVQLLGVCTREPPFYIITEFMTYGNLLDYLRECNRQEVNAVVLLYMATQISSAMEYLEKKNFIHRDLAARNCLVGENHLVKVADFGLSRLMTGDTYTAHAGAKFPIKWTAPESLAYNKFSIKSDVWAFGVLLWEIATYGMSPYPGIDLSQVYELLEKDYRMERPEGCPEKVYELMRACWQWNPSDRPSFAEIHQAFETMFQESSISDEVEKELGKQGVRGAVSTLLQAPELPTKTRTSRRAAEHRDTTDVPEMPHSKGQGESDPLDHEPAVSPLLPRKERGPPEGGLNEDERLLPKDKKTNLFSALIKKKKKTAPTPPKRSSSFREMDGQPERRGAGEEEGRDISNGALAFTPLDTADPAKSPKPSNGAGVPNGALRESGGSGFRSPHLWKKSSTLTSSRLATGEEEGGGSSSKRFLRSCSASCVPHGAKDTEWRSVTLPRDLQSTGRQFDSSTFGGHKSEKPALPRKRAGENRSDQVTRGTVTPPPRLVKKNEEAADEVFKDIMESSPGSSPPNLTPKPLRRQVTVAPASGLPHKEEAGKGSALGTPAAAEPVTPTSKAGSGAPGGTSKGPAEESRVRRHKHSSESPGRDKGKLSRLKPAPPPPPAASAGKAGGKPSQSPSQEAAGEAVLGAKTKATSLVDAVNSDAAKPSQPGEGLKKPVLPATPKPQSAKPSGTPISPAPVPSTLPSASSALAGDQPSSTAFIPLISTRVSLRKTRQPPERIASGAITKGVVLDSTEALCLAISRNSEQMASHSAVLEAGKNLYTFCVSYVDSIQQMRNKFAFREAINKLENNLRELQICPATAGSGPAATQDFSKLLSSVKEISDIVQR
T4 sequence (P57059 whole entry): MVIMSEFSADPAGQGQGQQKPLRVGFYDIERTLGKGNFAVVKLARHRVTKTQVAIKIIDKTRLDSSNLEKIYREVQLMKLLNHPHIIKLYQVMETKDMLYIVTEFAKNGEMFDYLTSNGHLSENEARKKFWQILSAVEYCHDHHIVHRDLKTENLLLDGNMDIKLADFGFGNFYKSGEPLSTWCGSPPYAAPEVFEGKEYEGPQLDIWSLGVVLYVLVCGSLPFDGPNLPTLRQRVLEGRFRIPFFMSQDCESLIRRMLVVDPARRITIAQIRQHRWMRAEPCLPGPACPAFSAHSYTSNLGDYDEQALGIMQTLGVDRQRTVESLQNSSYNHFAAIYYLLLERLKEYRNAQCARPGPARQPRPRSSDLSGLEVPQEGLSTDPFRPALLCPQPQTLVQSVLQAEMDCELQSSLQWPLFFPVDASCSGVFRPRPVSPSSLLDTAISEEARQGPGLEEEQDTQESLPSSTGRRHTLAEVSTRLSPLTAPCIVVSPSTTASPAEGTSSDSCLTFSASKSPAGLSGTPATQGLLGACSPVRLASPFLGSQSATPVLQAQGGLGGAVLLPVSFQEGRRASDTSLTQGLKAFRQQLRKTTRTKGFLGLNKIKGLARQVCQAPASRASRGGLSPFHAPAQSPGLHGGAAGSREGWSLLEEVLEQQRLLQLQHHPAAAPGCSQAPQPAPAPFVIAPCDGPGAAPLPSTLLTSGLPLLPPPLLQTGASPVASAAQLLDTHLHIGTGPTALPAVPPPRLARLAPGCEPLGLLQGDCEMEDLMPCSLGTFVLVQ
T5 sequence (P29317 24-976): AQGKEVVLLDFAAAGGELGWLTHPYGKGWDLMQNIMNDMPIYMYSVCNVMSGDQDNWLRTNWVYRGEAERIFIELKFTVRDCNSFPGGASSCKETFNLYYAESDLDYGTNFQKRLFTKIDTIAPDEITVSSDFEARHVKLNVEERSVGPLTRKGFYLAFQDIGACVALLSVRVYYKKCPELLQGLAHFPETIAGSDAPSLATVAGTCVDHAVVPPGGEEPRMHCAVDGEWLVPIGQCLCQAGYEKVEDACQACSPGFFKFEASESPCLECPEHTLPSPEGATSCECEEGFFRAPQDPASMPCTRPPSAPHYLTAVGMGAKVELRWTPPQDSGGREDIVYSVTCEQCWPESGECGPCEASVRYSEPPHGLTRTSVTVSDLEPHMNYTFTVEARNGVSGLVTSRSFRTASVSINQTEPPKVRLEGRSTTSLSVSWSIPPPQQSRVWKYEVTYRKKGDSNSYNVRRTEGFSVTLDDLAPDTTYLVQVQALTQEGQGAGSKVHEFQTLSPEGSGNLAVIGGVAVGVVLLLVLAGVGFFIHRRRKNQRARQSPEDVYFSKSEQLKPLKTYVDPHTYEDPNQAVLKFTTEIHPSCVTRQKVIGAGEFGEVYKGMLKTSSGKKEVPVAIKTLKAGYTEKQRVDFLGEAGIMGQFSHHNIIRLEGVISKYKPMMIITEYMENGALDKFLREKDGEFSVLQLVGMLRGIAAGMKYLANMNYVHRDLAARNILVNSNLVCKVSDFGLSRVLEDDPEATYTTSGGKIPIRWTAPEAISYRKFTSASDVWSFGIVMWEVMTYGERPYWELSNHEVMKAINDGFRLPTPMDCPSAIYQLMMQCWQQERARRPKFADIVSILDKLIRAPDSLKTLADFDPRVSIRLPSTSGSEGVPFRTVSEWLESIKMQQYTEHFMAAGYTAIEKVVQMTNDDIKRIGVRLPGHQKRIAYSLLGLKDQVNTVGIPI
T6 sequence (Q9Y2K2 whole entry): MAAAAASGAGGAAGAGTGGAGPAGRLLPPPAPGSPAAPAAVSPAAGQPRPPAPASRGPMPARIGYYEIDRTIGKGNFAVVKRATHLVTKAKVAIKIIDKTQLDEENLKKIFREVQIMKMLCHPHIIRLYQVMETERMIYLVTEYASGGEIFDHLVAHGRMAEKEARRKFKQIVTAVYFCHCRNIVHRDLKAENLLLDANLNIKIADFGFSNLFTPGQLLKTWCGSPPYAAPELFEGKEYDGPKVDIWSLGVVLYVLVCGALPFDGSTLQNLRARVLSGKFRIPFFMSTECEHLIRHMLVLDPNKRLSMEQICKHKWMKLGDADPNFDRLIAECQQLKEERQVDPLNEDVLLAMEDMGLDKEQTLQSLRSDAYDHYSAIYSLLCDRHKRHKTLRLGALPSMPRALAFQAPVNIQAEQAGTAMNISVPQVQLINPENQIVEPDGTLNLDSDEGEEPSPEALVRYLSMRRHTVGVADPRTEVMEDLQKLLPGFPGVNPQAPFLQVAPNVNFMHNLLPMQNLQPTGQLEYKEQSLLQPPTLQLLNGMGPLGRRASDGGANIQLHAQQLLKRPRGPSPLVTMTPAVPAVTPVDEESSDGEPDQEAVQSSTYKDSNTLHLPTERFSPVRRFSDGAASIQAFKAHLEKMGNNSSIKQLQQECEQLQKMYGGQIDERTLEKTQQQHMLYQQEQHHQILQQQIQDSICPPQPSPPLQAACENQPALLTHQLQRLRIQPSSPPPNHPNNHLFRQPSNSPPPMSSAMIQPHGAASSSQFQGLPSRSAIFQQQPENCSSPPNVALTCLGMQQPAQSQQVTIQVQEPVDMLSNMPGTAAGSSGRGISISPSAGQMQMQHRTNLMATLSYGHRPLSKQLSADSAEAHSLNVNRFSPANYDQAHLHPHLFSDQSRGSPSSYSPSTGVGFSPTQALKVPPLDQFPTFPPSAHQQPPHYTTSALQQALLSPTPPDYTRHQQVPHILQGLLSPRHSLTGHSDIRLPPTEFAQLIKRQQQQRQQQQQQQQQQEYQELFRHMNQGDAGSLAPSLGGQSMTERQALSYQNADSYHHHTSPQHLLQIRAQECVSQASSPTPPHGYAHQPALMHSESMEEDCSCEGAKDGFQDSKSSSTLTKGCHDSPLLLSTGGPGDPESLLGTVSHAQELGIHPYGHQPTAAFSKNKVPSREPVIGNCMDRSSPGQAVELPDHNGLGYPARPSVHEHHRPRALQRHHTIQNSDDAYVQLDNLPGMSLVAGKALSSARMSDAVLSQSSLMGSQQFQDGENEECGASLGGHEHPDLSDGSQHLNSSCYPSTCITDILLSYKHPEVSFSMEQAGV

Compound | Ki (Abl) | Ki (Src) | Ki (SIK2) | Ki (SIK1) | Ki (EPHA2) | Ki (SIK3)
CNC1CCN(c2cc(-c3c(C)cccc3F)cc3cnc(N)cc23)CC1 [Example 15, 7-(2-fluoro-6-methyl-phenyl)-5-[4-(methylamino)-1-piperidyl]isoquinolin-3-amine] | 19.4 nM | 396 nM | 0.155 nM | 1.01 nM | 156 nM | 1.94 nM
Cc1cccc(F)c1-c1cc(N[C@@H]2CCCCN(C)C2)c2cc(N)ncc2c1 [Example 80, 7-(2-fluoro-6-methyl-phenyl)-N5-[(3R)-1-methylazepan-3-yl]isoquinoline-3,5-diamine] | 15.2 nM | 48.6 nM | 0.448 nM | 0.905 nM | > 1000 nM | 4.9 nM
Cc1cccc(F)c1-c1cc(NC2CCN(C)CC2)c2ncncc2c1 [Example 125, 6-(2-Fluoro-6-methyl-phenyl)-N-(1-methyl-4-piperidyl)quinazolin-8-amine] | > 1000 nM | > 1000 nM | 1.37 nM | 2.99 nM | 244 nM | 5 nM
CN1CCC(Nc2cc(-c3c(F)cccc3Cl)cc3cnc(N)cc23)CC1 [Example 64, 7-(2-Chloro-6-fluoro-phenyl)-N5-(1-methyl-4-piperidyl)isoquinoline-3,5-diamine] | > 10000 nM | 2420 nM | 11.7 nM |  |  | 
Cc1cccc(F)c1-c1cc(N2CC[C@@H](CN(C)C)C2)c2cc(N)ncc2c1 [Example 81, 5-[(3S)-3-[(dimethylamino)methyl]pyrrolidin-1-yl]-7-(2-fluoro-6-methyl-phenyl) isoquinolin-3-amine] | 296 nM | 1350 nM | 7.68 nM |  |  | 
Cc1cccc(F)c1-c1cc(N2CC[C@H](O)C2)c2cc(N)ncc2c1 [Example 105, (3S)-1-[3-amino-7-(2-fluoro-6-methyl-phenyl)-5-isoquinolyl]pyrrolidin-3-ol] | 169 nM | > 10000 nM | 38.1 nM |  |  | 
Cc1cccc(F)c1-c1ccc2c(C(=O)NC3CCN(C)CC3)c(N)ncc2c1 [Example 87, 3-Amino-7-(2-fluoro-6-methyl-phenyl)-N-(1-methyl-4-piperidyl)isoquinoline-4-carboxamide] | 667 nM | 574 nM | 9.99 nM |  |  | 

Further lines, results first:

Ki (Abl) | Ki (Src) | Ki (SIK2) | Ki (SIK1) | Ki (EPHA2) | Ki (SIK3) | Compound
345 nM | 136 nM | 6.54 nM |  |  |  | Cc1cccc(Cl)c1-c1ccc2c(C(=O)N[C@H]3CCNC3)c(N)ncc2c1 [Example 43, 3-amino-7-(2-chloro-6-methyl-phenyl)-N-[(3S)-pyrrolidin-3-yl]isoquinoline-4-carboxamide]
487 nM | 723 nM | 27.3 nM |  |  |  | Cc1cccc(F)c1-c1ccc2c(C(=O)NC3CNC3)c(N)ncc2c1 [Example 32, 3-Amino-N-(azetidin-3-yl)-7-(2-fluoro-6-methyl-phenyl)isoquinoline-4-carboxamide]
446 nM | 564 nM | 11.4 nM |  |  |  | Cc1cccc(F)c1-c1ccc2c(C(=O)NC3CCNCC3)c(N)ncc2c1 [Example 35, 3-amino-7-(2-fluoro-6-methyl-phenyl)-N-(4-piperidyl)isoquinoline-4-carboxamide]
481 nM | 317 nM | 12.8 nM |  |  |  | Cc1cccc(Cl)c1-c1ccc2c(C(=O)N[C@H]3CCN(C)C3)c(N)ncc2c1 [Example 98, 3-amino-7-(2-chloro-6-methyl-phenyl)-N-[(3S)-1-methylpyrrolidin-3-yl]isoquinoline-4-carboxamide]
88.5 nM | 137 nM | 11.3 nM |  | 764 nM |  | Cc1cccc(Cl)c1-c1ccc2c(C(=O)NC3CNC3)c(N)ncc2c1 [Example 38, 3-amino-N-(azetidin-3-yl)-7-(2-chloro-6-methyl-phenyl)isoquinoline-4-carboxamide]
190 nM | 58.4 nM | 3.75 nM | 6.07 nM |  | 61.7 nM | Cc1cccc(Cl)c1-c1ccc2c(C(=O)NC3CCNCC3)c(N)ncc2c1 [Example 41, 3-amino-7-(2-chloro-6-methyl-phenyl)-N-(4-piperidyl)isoquinoline-4-carboxamide]
